{"source": "paper PMC6444592", "about": "“Citrullination of HP1γ chromodomain affects association with chromatin” (Epigenetics & Chromatin, 2019)", "system": "chromatin", "experiment": "single-particle tracking, 500 ms, motion blurring: chromatin residence time", "format": "cell-based, mouse", "details": "for Percentage, Specific / Percentage, Unspecific / Residence time, Specific / Residence time, Unspecific / Residence time, specific binding: 500 ms; for Residence time, specific binding / specific residence time, in words: −LIF 72 h; for Residence time, specific binding: mESCs, mean ± SD (n = 3); for specific residence time, in words: p value left to right = 0.027, 0.036; for unspecific residence time, effect of LIF withdrawal: ns. p value > 0.841", "excerpt": "Although HP1 is a multifunctional protein, its best-characterised function is its ability to specifically bind to H3 tails harbouring H3K9me3. This underpins the establishment of localised, as well as higher-order, chromatin domains. Indeed, binding of structural chromatin proteins, such as HP1, is crucial in establishing heterochromatin during stem cell differentiation. We therefore decided to focus on the chromatin bound fraction of HP1γ. We used a concept called motion blurring in which long exposures are used to blur molecules that are diffusing so they are not detected. Therefore, only molecules bound throughout the long exposure are imaged. We performed SPT at 500 ms time resolution of mESCs expressing either HP1γWT or HP1γR38/9A mutant proteins (−/+ LIF). Movies of representative cells are shown in Additional file 8: Movie S1, Additional file 9: Movie S2, Additional file 10: Movie S3, and Additional file 11: Movie S4.\nParental E14 mouse embryonic stem cell (mESC) line was profiled by transcriptome analysis, qPCR and potency assays and was routinely tested for mycoplasma contamination and tested negative. Cells were cultured in DMEM (Gibco) supplemented with 15% standard FCS (Gibco), 0.1 mM non-essential amino acids (Gibco), 1% penicillin/streptomycin, 2 mM L-glutamine (Gibco), 1 mM sodium pyruvate (Gibco), 0.1 mM β-mercaptoethanol (Life Technologies) and 10^6 units/l mLIF (ESGRO, Millipore). E14 cells were stored in incubators at 37 °C in 7.5% CO2 (100% humidity) and maintained in 0.1% gelatin coated 10-cm culture dishes with 1:6 passaging every 2 days. Media was changed on a daily basis. E14 ESCs expressing mouse mEos3.2–HaloTag-HP1 fusion proteins were generated by transfecting appropriate pSB7 plasmids into E14 cells using Lipofectamine 2000 transfection reagent (Invitrogen), followed by selection in 600 µg/ml geneticin (Life Technologies). After 2 weeks of geneticin selection, cells were sorted using a Sony SH800S cell sorter for the expression of mEos3.2. Differentiation of ESCs was induced by LIF withdrawal. ESCs cultured in complete ES cell media (+ LIF) were trypsinised and washed twice in 1x PBS to remove residual LIF, seeded into ES cell media without LIF and incubated for 24, 48 or 72 h.\nAn IX73 Olympus inverted microscope was used with circularly polarised laser beams aligned and focused at the back aperture of an Olympus 1.40 NA 100 × oil objective (Universal Plan Super Apochromat, 100 × , NA 1.40, UPLSAPO100XO/1.4). Continuous wavelength diode laser light sources used include a 561-nm (Cobolt, Jive 200, 200 mW) and a 405-nm laser (Stradus, Toptica, 405–100, 100 mW). Oblique angle illumination was achieved by aligning the laser off axis such that the emergent beam at the sample interface was near-collimated and incident at an angle slightly less than the critical angle θc ~ 67° for a glass/water interface. This generated a ~ 50 μm diameter excitation footprint. The power of the collimated beams at the back aperture of the microscope was 10 kW/cm^2 and 10–100 W/cm^2 for the 561-nm and 405-nm laser beams, respectively. The lasers were reflected by dichroic mirrors (Semrock, Di01-R405/488/561/635). The fluorescence emission was collected through the same objective and then further filtered using a combination of long-pass and band-pass filters (BLP01-561R and FF01-587/35 for 561 nm excitation). The emission signal was projected onto an EMCCD (Photometrics, Evolve 512 Delta) with an electron multiplication gain of 250 ADU/photon operating in a frame transfer mode.\nmESCs expressing mEos3.2–HaloTag-tagged HP1γ were passaged 2 days before imaging onto 35-mm glass bottom dishes No 1.0 (MatTek Corporation P35G-1.0-14-C Case) in phenol red-free serum and LIF conditions, if not stated otherwise. […]", "data": [{"substance": "HP1γR38/9A: HP1γ with alanine substitutions at amino acids 38 and 39 to mimic citrullination", "values": [{"measurement": "Percentage, Specific", "setting": "+LIF, replicate i", "result": 89.000, "unit": "%"}, {"measurement": "Percentage, Unspecific", "setting": "+LIF, replicate i", "result": 11.000, "unit": "%"}, {"measurement": "Residence time, Specific", "setting": "+LIF, replicate i", "result": 26.000, "unit": "s"}, {"measurement": "Residence time, Unspecific", "setting": "+LIF, replicate i", "result": 4.100, "unit": "s"}, {"measurement": "Percentage, Specific", "setting": "+LIF, replicate ii", "result": 90.900, "unit": "%"}, {"measurement": "Percentage, Unspecific", "setting": "+LIF, replicate ii", "result": 9.100, "unit": "%"}, {"measurement": "Residence time, Specific", "setting": "+LIF, replicate ii", "result": 17.900, "unit": "s"}, {"measurement": "Residence time, Unspecific", "setting": "+LIF, replicate ii", "result": 2.100, "unit": "s"}, {"measurement": "Percentage, Specific", "setting": "+LIF, replicate iii", "result": 82.500, "unit": "%"}, {"measurement": "Percentage, Unspecific", "setting": "+LIF, replicate iii", "result": 17.500, "unit": "%"}, {"measurement": "Residence time, Specific", "setting": "+LIF, replicate iii", "result": 17.400, "unit": "s"}, {"measurement": "Residence time, Unspecific", "setting": "+LIF, replicate iii", "result": 1.300, "unit": "s"}, {"measurement": "Residence time, specific binding", "result": "29.5 ± 4.1", "unit": "s"}, {"measurement": "specific residence time, in words", "result": "significantly lower than for HP1γWT molecules"}, {"measurement": "specific residence time, in words", "setting": "listed as R38/9A mutant HP1γ", "result": "considerably shorter"}, {"measurement": "unspecific residence time, effect of LIF withdrawal", "setting": "−LIF 72 h versus +LIF", "result": "no effect"}, {"measurement": "Percentage, Specific", "setting": "−LIF, replicate i", "result": 83.000, "unit": "%"}, {"measurement": "Percentage, Unspecific", "setting": "−LIF, replicate i", "result": 17.000, "unit": "%"}, {"measurement": "Residence time, Specific", "setting": "−LIF, replicate i", "result": 34.000, "unit": "s"}, {"measurement": "Residence time, Unspecific", "setting": "−LIF, replicate i", "result": 4.900, "unit": "s"}, {"measurement": "Percentage, Specific", "setting": "−LIF, replicate ii", "result": 90.800, "unit": "%"}, {"measurement": "Percentage, Unspecific", "setting": "−LIF, replicate ii", "result": 9.200, "unit": "%"}, {"measurement": "Residence time, Specific", "setting": "−LIF, replicate ii", "result": 28.500, "unit": "s"}, {"measurement": "Residence time, Unspecific", "setting": "−LIF, replicate ii", "result": 1.700, "unit": "s"}, {"measurement": "Percentage, Specific", "setting": "−LIF, replicate iii", "result": 88.200, "unit": "%"}, {"measurement": "Percentage, Unspecific", "setting": "−LIF, replicate iii", "result": 11.800, "unit": "%"}, {"measurement": "Residence time, Specific", "setting": "−LIF, replicate iii", "result": 25.900, "unit": "s"}, {"measurement": "Residence time, Unspecific", "setting": "−LIF, replicate iii", "result": 1.800, "unit": "s"}]}, {"substance": "HP1γWT: full-length mouse HP1γ wild type, as GST or mEos3.2–HaloTag fusion protein", "values": [{"measurement": "Percentage, Specific", "setting": "+LIF, replicate i", "result": 91.000, "unit": "%"}, {"measurement": "Percentage, Unspecific", "setting": "+LIF, replicate i", "result": 9.000, "unit": "%"}, {"measurement": "Residence time, Specific", "setting": "+LIF, replicate i", "result": 36.000, "unit": "s"}, {"measurement": "Residence time, Unspecific", "setting": "+LIF, replicate i", "result": 4.400, "unit": "s"}, {"measurement": "Percentage, Specific", "setting": "+LIF, replicate ii", "result": 93.400, "unit": "%"}, {"measurement": "Percentage, Unspecific", "setting": "+LIF, replicate ii", "result": 6.600, "unit": "%"}, {"measurement": "Residence time, Specific", "setting": "+LIF, replicate ii", "result": 27.527, "unit": "s"}, {"measurement": "Residence time, Unspecific", "setting": "+LIF, replicate ii", "result": 1.549, "unit": "s"}, {"measurement": "Percentage, Specific", "setting": "+LIF, replicate iii", "result": 87.000, "unit": "%"}, {"measurement": "Percentage, Unspecific", "setting": "+LIF, replicate iii", "result": 13.000, "unit": "%"}, {"measurement": "Residence time, Specific", "setting": "+LIF, replicate iii", "result": 22.800, "unit": "s"}, {"measurement": "Residence time, Unspecific", "setting": "+LIF, replicate iii", "result": 1.500, "unit": "s"}, {"measurement": "Residence time, specific binding", "result": "49.2 ± 12.3", "unit": "s"}, {"measurement": "specific residence time, in words", "result": "significantly increased"}, {"measurement": "increase of specific residence time upon differentiation", "setting": "−LIF 72 h versus +LIF", "result": 20, "unit": "s"}, {"measurement": "unspecific residence time, effect of LIF withdrawal", "setting": "−LIF 72 h versus +LIF", "result": "no effect"}, {"measurement": "Percentage, Specific", "setting": "−LIF, replicate i", "result": 88.000, "unit": "%"}, {"measurement": "Percentage, Unspecific", "setting": "−LIF, replicate i", "result": 12.000, "unit": "%"}, {"measurement": "Residence time, Specific", "setting": "−LIF, replicate i", "result": 55.000, "unit": "s"}, {"measurement": "Residence time, Unspecific", "setting": "−LIF, replicate i", "result": 6.000, "unit": "s"}, {"measurement": "Percentage, Specific", "setting": "−LIF, replicate ii", "result": 93.500, "unit": "%"}, {"measurement": "Percentage, Unspecific", "setting": "−LIF, replicate ii", "result": 6.500, "unit": "%"}, {"measurement": "Residence time, Specific", "setting": "−LIF, replicate ii", "result": 57.488, "unit": "s"}, {"measurement": "Residence time, Unspecific", "setting": "−LIF, replicate ii", "result": 1.811, "unit": "s"}, {"measurement": "Percentage, Specific", "setting": "−LIF, replicate iii", "result": 88.000, "unit": "%"}, {"measurement": "Percentage, Unspecific", "setting": "−LIF, replicate iii", "result": 12.000, "unit": "%"}, {"measurement": "Residence time, Specific", "setting": "−LIF, replicate iii", "result": 35.000, "unit": "s"}, {"measurement": "Residence time, Unspecific", "setting": "−LIF, replicate iii", "result": 2.300, "unit": "s"}]}]}
